Assay results published in patent US9409952B2, “Peptide-compound cyclization method” (Chugai Seiyaku Kabushiki Kaisha, priority 2011, dated 2016).
Read-outs that look alike come from different tables or passages of the source. Starred links: 1 amine or outer side, 2 acyl side, 3 side chain; linkers in the order of their positions; H or OH if unused. Positions of bridges follow the written chain, without caps; N, C: chain ends. Non-standard residues stand in square brackets, D forms with d. Residues, ends and D or L forms follow the SMILES beside them. *: point of attachment. NMeF = CN[C@@H](Cc1ccccc1)C(=O)O; NMeI = CC[C@H](C)[C@H](NC)C(=O)O; NMeβAla = CN(CCC(=O)[*:2])[*:1]; NMeL = CN[C@@H](CC(C)C)C(=O)O; NMeV = CN[C@H](C(=O)O)C(C)C; NMeA = CN[C@@H](C)C(=O)O; Piperidide = C1CCN(*)CC1; dNMeA = CN[C@H](C)C(=O)O; Sar = CNCC(=O)O; tBu = CC(C)(C)*

How the values were obtained:
[1] = Metabolic stability in human hepatic microsome; format: in vitro ADME; conditions: microsomes
[2] = PAMPA (parallel artificial membrane permeability assay); format: in vitro ADME; conditions: PAMPA
Summary of the method: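 Artificial membrane was 10% (w/v) egg lecithin plus 0.5% (w/v) cholesterol in dodecane on a PVDF filter. A 10 mM DMSO stock was added at 0.5% (v/v) to donor buffer (50 mM MOPSO, pH 6.5, 5.0% glycocholic acid). After 18 h at 37 °C, LC/MS or LC/UV gave donor and acceptor levels for Pe.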

[3] = pH 7.4, human hepatic microsome, NADPH(+), read-out: CL NADPH(+)
[4] = membrane permeation rate (Pe), 50 mM MOPSO buffer pH 6.5 with 5.0% glycocholic acid, 37° C., 18 hours, read-out: iPAMPA Pe

| SMILES | microsomal CLint at 1 uM ([1]; human, pH 7.4, CL NADPH(+)) [µL/min/mg] | Papp at 18 hours, 50 µM ([2]; pH 6.5) [×10⁻⁶ cm/s] | microsomal CLint at 1 uM [1, 3] [µL/min/mg] | Papp at 18 hours, 50 µM [2, 4] [×10⁻⁶ cm/s] |
| --- | --- | --- | --- | --- |
| CC[C@H](C)[C@H]1C(=O)N(C)[C@@H](Cc2ccccc2)C(=O)NCC(=O)N(C)[C@@H](Cc2ccccc2)C(=O)N(C)[C@@H](CC(C)C)C(=O)N(C)[C@@H](CC(C)C)C(=O)N[C@H](C(=O)N2CCCCC2)CC(=O)N[C@H](C(C)C)C(=O)N[C@@H]([C@@H](C)O)C(=O)N(C)[C@@H](C)C(=O)N1C [DP-72] ([dV]T[NMeA][NMeI][NMeF]G[NMeF][NMeL][NMeL]D-Piperidide; lactam N-10) | 58 | 27 |  |  |
| CC[C@H](C)[C@H]1C(=O)N[C@@H](C)C(=O)N[C@H](C(=O)N2CCCCC2)CC(=O)N(C)[C@@H](C)C(=O)N[C@@H]([C@@H](C)O)C(=O)N(C)[C@@H](C)C(=O)N(C)[C@@H](C(C)C)C(=O)N[C@@H](Cc2ccccc2)C(=O)N(C)CC(=O)N(C)[C@@H](CC(C)C)C(=O)N1C [DP-73] ([NMeA]T[NMeA][NMeV]F[Sar][NMeL][NMeI]AD-Piperidide; lactam N-10) | 30 | 5.4 |  |  |
| CC[C@H](C)[C@H]1C(=O)NCC(=O)N(C)[C@@H](Cc2ccccc2)C(=O)N(C)[C@@H](Cc2ccccc2)C(=O)N(C)[C@@H](CC(C)C)C(=O)N(C)[C@@H](CC(C)C)C(=O)N[C@H](C(=O)N2CCCCC2)CC(=O)N(C)[C@H](C)C(=O)N[C@@H]([C@@H](C)O)C(=O)N(C)[C@@H](C)C(=O)N1C [DP-74] ([dNMeA]T[NMeA][NMeI]G[NMeF][NMeF][NMeL][NMeL]D-Piperidide; lactam N-10) | 118 | 29 |  |  |
| CC[C@H](C)[C@H]1C(=O)N(C)[C@@H](CC(C)C)C(=O)N[C@H](C(=O)N2CCCCC2)CC(=O)N(C)CC(=O)N[C@@H]([C@@H](C)O)C(=O)N(C)[C@@H](C)C(=O)N(C)[C@@H](C(C)C)C(=O)N[C@@H](Cc2ccccc2)C(=O)N(C)CC(=O)N[C@@H](C)C(=O)N1C [DP-75] ([Sar]T[NMeA][NMeV]F[Sar]A[NMeI][NMeL]D-Piperidide; lactam N-10) | 27 | 3.3 |  |  |
| CC[C@H](C)[C@H]1C(=O)N(C)[C@@H](C)C(=O)N[C@H](C(=O)N2CCCCC2)CC(=O)N(C)CC(=O)N[C@@H](COC(C)(C)C)C(=O)N(C)CC(=O)N(C)[C@@H](CC(C)C)C(=O)N[C@@H]([C@@H](C)O)C(=O)N(C)[C@@H](Cc2ccccc2)C(=O)N(C)[C@@H](CC(C)C)C(=O)N1C [DP-76] ([Sar]S(tBu)[Sar][NMeL]T[NMeF][NMeL][NMeI][NMeA]D-Piperidide; lactam N-10) | 27 | 16 |  |  |
| CC[C@H](C)[C@H]1C(=O)N[C@H](C(=O)N2CCCCC2)CC(=O)N[C@H](C)C(=O)N(C)[C@@H](Cc2ccccc2)C(=O)N(C)[C@@H](CC(C)C)C(=O)N[C@@H]([C@@H](C)O)C(=O)N(C)CC(=O)N(C)[C@@H](CC(C)C)C(=O)N[C@@H](COC(C)(C)C)C(=O)N1C [DP-77] ([dA][NMeF][NMeL]T[Sar][NMeL]S(tBu)[NMeI]D-Piperidide; lactam N-9) | 33 | 21 |  |  |
| CC(C)C[C@H]1C(=O)N(C)[C@@H](Cc2ccccc2)C(=O)N(C)[C@@H](CC(C)C)C(=O)N[C@H](C(=O)N2CCCCC2)CC(=O)N[C@H](C(C)C)C(=O)N[C@@H](C)C(=O)N[C@@H]([C@@H](C)O)C(=O)N(C)[C@@H](C)C(=O)N[C@@H](Cc2ccccc2)C(=O)N1C [DP-78] ([dV]AT[NMeA]F[NMeL][NMeF][NMeL]D-Piperidide; lactam N-9) | 57 | 38 |  |  |
| CC(C)C[C@H]1C(=O)NCC(=O)N[C@H](C(=O)N2CCCCC2)CC(=O)N(C)[C@@H](C)C(=O)N[C@@H]([C@@H](C)O)C(=O)N(C)[C@@H](C)C(=O)N(C)[C@@H](Cc2ccccc2)C(=O)N[C@@H](COC(C)(C)C)C(=O)N(C)[C@@H](Cc2ccccc2)C(=O)N1C [DP-79] ([NMeA]T[NMeA][NMeF]S(tBu)[NMeF][NMeL]GD-Piperidide; lactam N-9) | 145 | 28 |  |  |
| CC(C)C[C@H]1C(=O)N(C)[C@@H](Cc2ccccc2)C(=O)NCC(=O)N[C@H](C(=O)N2CCCCC2)CC(=O)N(C)CCC(=O)N[C@@H]([C@@H](C)O)C(=O)N(C)[C@@H](C)C(=O)N[C@@H](COC(C)(C)C)C(=O)N(C)[C@@H](Cc2ccccc2)C(=O)N1C [DP-80] ([NMeβAla]T[NMeA]S(tBu)[NMeF][NMeL][NMeF]GD-Piperidide; lactam N-9) | 43 | 12 |  |  |
| CC[C@H](C)[C@H]1C(=O)N[C@H](C(=O)N2CCCCC2)CC(=O)N(C)[C@H](C)C(=O)N(C)[C@@H](Cc2ccccc2)C(=O)N(C)[C@@H](CC(C)C)C(=O)N[C@@H]([C@@H](C)O)C(=O)N(C)CC(=O)N[C@@H](COC(C)(C)C)C(=O)N(C)[C@@H](CC(C)C)C(=O)N1C [DP-81] ([dNMeA][NMeF][NMeL]T[Sar]S(tBu)[NMeL][NMeI]D-Piperidide; lactam N-9) | 38 | 25 |  |  |
| CC[C@H](C)[C@H]1C(=O)N[C@@H](C)C(=O)N[C@H](C(=O)N2CCCCC2)CC(=O)N[C@H](C)C(=O)N[C@@H](Cc2ccccc2)C(=O)N(C)[C@@H](CC(C)C)C(=O)N[C@@H](CC(C)C)C(=O)N[C@@H](Cc2ccccc2)C(=O)N2CCC[C@H]2C(=O)N[C@@H]([C@@H](C)O)C(=O)N[C@@H](COC(C)(C)C)C(=O)N(C)CC(=O)N1C [DP-88] ([dA]F[NMeL]LFPTS(tBu)[Sar][NMeI]AD-Piperidide; lactam N-12) | 32 | 13 |  |  |
| CC[C@H](C)[C@H]1C(=O)N[C@@H](CC(C)C)C(=O)NCC(=O)N(C)[C@@H](CC(C)C)C(=O)N[C@@H](Cc2ccccc2)C(=O)N[C@@H]([C@@H](C)O)C(=O)N(C)[C@@H](C)C(=O)N[C@H](C(=O)N2CCCCC2)CC(=O)N(C)[C@@H](C)C(=O)N[C@@H](Cc2ccccc2)C(=O)N(C)[C@@H](C(C)C)C(=O)N[C@@H](CC(C)C)C(=O)N1C [DP-89] ([NMeA]F[NMeV]L[NMeI]LG[NMeL]FT[NMeA]D-Piperidide; lactam N-12) | 58 | 23 |  |  |
| CC[C@H](C)[C@H]1C(=O)N(C)[C@@H](C)C(=O)N(C)[C@@H](CC(C)C)C(=O)N[C@@H](COC(C)(C)C)C(=O)N(C)[C@@H](CC(C)C)C(=O)N[C@H](C(=O)N2CCCCC2)CC(=O)N(C)[C@@H](C)C(=O)N(C)[C@@H](Cc2ccccc2)C(=O)N[C@@H](C)C(=O)N(C)[C@@H](CC(C)C)C(=O)N[C@@H]([C@@H](C)O)C(=O)N[C@@H](Cc2ccccc2)C(=O)N1C [DP-90] ([NMeA][NMeF]A[NMeL]TF[NMeI][NMeA][NMeL]S(tBu)[NMeL]D-Piperidide; lactam N-12) |  |  | 30 | 9.1 |
| CC[C@H](C)[C@H]1C(=O)NCC(=O)N(C)[C@@H](CC(C)C)C(=O)N[C@@H](CC(C)C)C(=O)N[C@H](C(=O)N2CCCCC2)CC(=O)N(C)CCC(=O)N(C)[C@@H](C)C(=O)N[C@@H](CC(C)C)C(=O)N[C@@H]([C@@H](C)O)C(=O)N2CCC[C@H]2C(=O)N[C@@H](Cc2ccccc2)C(=O)N(C)[C@@H](Cc2ccccc2)C(=O)N1C [DP-91] ([NMeβAla][NMeA]LTPF[NMeF][NMeI]G[NMeL]LD-Piperidide; lactam N-12) | 58 | 20 |  |  |
| CC[C@H](C)[C@H]1C(=O)N[C@@H](C)C(=O)N(C)[C@@H](CC(C)C)C(=O)N[C@@H](COC(C)(C)C)C(=O)N(C)[C@@H](CC(C)C)C(=O)N[C@H](C(=O)N2CCCCC2)CC(=O)N(C)CCC(=O)N[C@@H](Cc2ccccc2)C(=O)N(C)[C@@H](Cc2ccccc2)C(=O)N(C)[C@@H](CC(C)C)C(=O)N[C@@H]([C@@H](C)O)C(=O)N(C)[C@@H](C)C(=O)N1C [DP-92] ([NMeβAla]F[NMeF][NMeL]T[NMeA][NMeI]A[NMeL]S(tBu)[NMeL]D-Piperidide; lactam N-12) |  |  | 29 | 26 |
| CC[C@H](C)[C@H]1C(=O)NCC(=O)N(C)[C@@H](Cc2ccccc2)C(=O)N[C@@H]([C@@H](C)O)C(=O)N(C)[C@@H](C)C(=O)N[C@@H](CC(C)C)C(=O)N[C@H](C(=O)N2CCCCC2)CC(=O)N(C)[C@H](C)C(=O)N(C)[C@@H](C)C(=O)N[C@@H](Cc2ccccc2)C(=O)N(C)[C@@H](CC(C)C)C(=O)N[C@@H](C(C)C)C(=O)N1C [DP-93] ([dNMeA][NMeA]F[NMeL]V[NMeI]G[NMeF]T[NMeA]LD-Piperidide; lactam N-12) | 17 | 22 |  |  |
| CC[C@H](C)[C@H]1C(=O)N[C@H](C(=O)N2CCCCC2)CC(=O)N(C)[C@H](C)C(=O)N[C@@H](CC(C)C)C(=O)N(C)[C@@H](Cc2ccccc2)C(=O)N(C)[C@@H](CC(C)C)C(=O)NCC(=O)N(C)[C@@H](C(C)C)C(=O)N(C)[C@@H](Cc2ccccc2)C(=O)N(C)[C@@H](C)C(=O)N[C@@H]([C@@H](C)O)C(=O)N(C)[C@@H](C)C(=O)N1C [DP-94] ([dNMeA]L[NMeF][NMeL]G[NMeV][NMeF][NMeA]T[NMeA][NMeI]D-Piperidide; lactam N-12) | 17 | 28 |  |  |
| CC(C)C[C@@H]1NC(=O)[C@H](CC(C)C)N(C)C(=O)[C@H](C)NC(=O)[C@H](C(C)C)N(C)C(=O)[C@H](Cc2ccccc2)NC(=O)CN(C)C(=O)[C@H]([C@@H](C)O)NC(=O)[C@H](C)N(C)C(=O)[C@H](CC(C)C)N(C)C(=O)[C@@H](C)NC(=O)C[C@@H](C(=O)N2CCCCC2)NC1=O [DP-95] ([dA][NMeL][NMeA]T[Sar]F[NMeV]A[NMeL]LD-Piperidide; lactam N-11) |  |  | 19 | 7.3 |
